Laboratory results reported in ChEMBL document CHEMBL1201862, “PubChem BioAssay data set” (2004).
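48-hour exposure; five concentrations; linearly interpolated endpoints. GI50: concentration for 50% inhibition of growth.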 Activity calls are given as the source filed them. No stated cut-off is given here; in the data, active = GI50 up to about 1.1 µM and inactive = higher.

Key:
Experiment in all cases: DTP human tumour cell line panel, 48 h
MCF7 = tested on: MCF7
OVCAR-5 = tested on: OVCAR-5
A549 = tested on: A549
SK-MEL-28 = tested on: SK-MEL-28
UO-31 = tested on: UO-31
RXF 393 = tested on: RXF 393
SF-295 = tested on: SF-295
HCT-15 = tested on: HCT-15
EKVX = tested on: EKVX
OVCAR-3 = tested on: OVCAR-3
PC-3 = tested on: PC-3
A498 = tested on: A498
SF-268 = tested on: SF-268
SW-620 = tested on: SW-620
MDA-N = tested on: MDA-N
SN12C = tested on: SN12C
U-251 = tested on: U-251
DU-145 = tested on: DU-145
SNB-19 = tested on: SNB-19
ACHN = tested on: ACHN
SF-539 = tested on: SF-539
NCI/ADR-RES = tested on: NCI/ADR-RES
TK-10 = tested on: TK-10
NCI-H226 = tested on: NCI-H226
SK-MEL-5 = tested on: SK-MEL-5
CCRF-CEM = tested on: CCRF-CEM
T47D = tested on: T47D
CAKI-1 = tested on: CAKI-1
NCI-H522 = tested on: NCI-H522
HCC 2998 = tested on: HCC 2998
UACC-257 = tested on: UACC-257
NCI-H23 = tested on: NCI-H23
RPMI-8226 = tested on: RPMI-8226
KM12 = tested on: KM12
K562 = tested on: K562
UACC-62 = tested on: UACC-62
LOX IMVI = tested on: LOX IMVI
MOLT-4 = tested on: MOLT-4
HOP-92 = tested on: HOP-92
SK-MEL-2 = tested on: SK-MEL-2
SR = tested on: SR
786-0 = tested on: 786-0
IGROV-1 = tested on: IGROV-1
HL-60 = tested on: HL-60
HCT-116 = tested on: HCT-116
OVCAR-8 = tested on: OVCAR-8
HOP-62 = tested on: HOP-62
MDA-MB-435 = tested on: MDA-MB-435
MDA-MB-231 = tested on: MDA-MB-231
Hs-578T = tested on: Hs-578T
SNB-75 = tested on: SNB-75
COLO 205 = tested on: COLO 205
OVCAR-4 = tested on: OVCAR-4
HT-29 = tested on: HT-29
M14 = tested on: M14
SK-OV-3 = tested on: SK-OV-3
NCI-H460 = tested on: NCI-H460
Malme-3M = tested on: Malme-3M

CC[C@H](CCCCC1CC[C@@H]2CC(=O)C[C@H]12)OC (stereo partly specified)
GI50 (MCF7): > 100 µM (inactive)
GI50 (OVCAR-5): > 100 µM (inactive)
GI50 (A549): > 100 µM (inactive)
GI50 (SK-MEL-28): > 100 µM (inactive)
GI50 (UO-31): 93.8 µM (inactive)
GI50 (RXF 393): > 100 µM (inactive)
GI50 (SF-295): > 100 µM (inactive)
GI50 (HCT-15): > 100 µM
GI50 (EKVX): > 100 µM (inactive)
GI50 (OVCAR-3): > 100 µM (inactive)
GI50 (PC-3): > 100 µM (inactive)
GI50 (A498): > 100 µM (inactive)
GI50 (SF-268): > 100 µM (inactive)
GI50 (SW-620): > 100 µM (inactive)
GI50 (MDA-N): > 100 µM (inactive)
GI50 (SN12C): > 100 µM (inactive)
GI50 (U-251): > 100 µM (inactive)
GI50 (DU-145): > 100 µM (inactive)

CCCCCCCCCCCCCCCCCCNc1nc(=O)n(C2CC(OP(=O)(O)OCC3OC(n4cc(F)c(=O)[nH]c4=O)CC3O)C(CO)O2)cc1F (stereo unspecified)
GI50 (SNB-19): 12.1 µM (inactive)
GI50 (ACHN): 11.2 µM (inactive)
GI50 (MCF7): 9.86 µM (inactive)
GI50 (SF-539): 6.67 µM (inactive)
GI50 (NCI/ADR-RES): 30.3 µM (inactive)
GI50 (OVCAR-5): 54.2 µM (inactive)
GI50 (TK-10): 70.5 µM (inactive)
GI50 (NCI-H226): 98.4 µM (inactive)
GI50 (SK-MEL-5): 34.7 µM (inactive)
GI50 (A549): 7.24 µM (inactive)
GI50 (SK-MEL-28): 27.1 µM (inactive)
GI50 (CCRF-CEM): 12.9 µM (inactive)
GI50 (T47D): 31.2 µM (inactive)
GI50 (UO-31): 13.5 µM (inactive)
GI50 (CAKI-1): 26.2 µM (inactive)
GI50 (RXF 393): 11.4 µM (inactive)
GI50 (SF-295): 13.5 µM (inactive)
GI50 (HCT-15): 37.5 µM
GI50 (EKVX): > 100 µM (inactive)
GI50 (NCI-H522): 30.3 µM (inactive)
GI50 (HCC 2998): 5.97 µM (inactive)
GI50 (UACC-257): 61 µM (inactive)
GI50 (NCI-H23): 38.8 µM (inactive)
GI50 (RPMI-8226): 11.2 µM (inactive)
GI50 (OVCAR-3): 29 µM (inactive)
GI50 (KM12): 11.2 µM (inactive)
GI50 (K562): 26.9 µM (inactive)
GI50 (PC-3): 22.6 µM (inactive)
GI50 (A498): 13 µM (inactive)
GI50 (UACC-62): 20.5 µM (inactive)
GI50 (LOX IMVI): 26.1 µM (inactive)
GI50 (SF-268): 12.4 µM (inactive)
GI50 (MOLT-4): 14.7 µM (inactive)
GI50 (HOP-92): 5.33 µM (inactive)
GI50 (SK-MEL-2): 27.5 µM (inactive)
GI50 (SR): 4.86 µM (inactive)
GI50 (786-0): 49.4 µM (inactive)
GI50 (IGROV-1): 46.3 µM (inactive)
GI50 (HL-60): 5.18 µM (inactive)
GI50 (HCT-116): 47.1 µM (inactive)
GI50 (SW-620): 18.8 µM (inactive)
GI50 (OVCAR-8): 17.5 µM (inactive)
GI50 (HOP-62): 15.2 µM (inactive)
GI50 (MDA-MB-435): 75.2 µM (inactive)
GI50 (MDA-MB-231): > 100 µM (inactive)
GI50 (Hs-578T): 35.2 µM (inactive)
GI50 (SNB-75): 36.9 µM (inactive)
GI50 (COLO 205): 20.7 µM (inactive)
GI50 (SN12C): > 100 µM (inactive)
GI50 (OVCAR-4): > 100 µM (inactive)
GI50 (HT-29): 16.6 µM (inactive)
GI50 (M14): 19.5 µM (inactive)
GI50 (U-251): 17.5 µM (inactive)
GI50 (DU-145): 62.2 µM (inactive)
GI50 (SK-OV-3): 31.7 µM (inactive)

O=C(COc1ccc(Cl)c(Cl)c1)N(Cc1ccccc1)Cc1ccc[n+](Cc2ccc(Cl)cc2S(=O)(=O)F)c1
GI50 (NCI-H460): > 100 µM (inactive)
GI50 (SNB-19): 37.8 µM (inactive)
GI50 (ACHN): 56.4 µM (inactive)
GI50 (MCF7): 46.3 µM (inactive)
GI50 (SF-539): 12.9 µM (inactive)
GI50 (NCI/ADR-RES): > 100 µM (inactive)
GI50 (OVCAR-5): > 100 µM (inactive)
GI50 (TK-10): 53.3 µM (inactive)
GI50 (NCI-H226): > 100 µM (inactive)
GI50 (SK-MEL-5): 22.6 µM (inactive)
GI50 (A549): > 100 µM (inactive)
GI50 (SK-MEL-28): 26.8 µM (inactive)
GI50 (T47D): 59.7 µM (inactive)
GI50 (UO-31): > 100 µM (inactive)
GI50 (CAKI-1): > 100 µM (inactive)
GI50 (RXF 393): > 100 µM (inactive)
GI50 (SF-295): > 100 µM (inactive)
GI50 (HCT-15): 31.5 µM
GI50 (NCI-H522): 94.6 µM (inactive)
GI50 (UACC-257): 35.4 µM (inactive)
GI50 (NCI-H23): 41.3 µM (inactive)
GI50 (RPMI-8226): 13.3 µM (inactive)
GI50 (OVCAR-3): 65.5 µM (inactive)
GI50 (KM12): 23.4 µM (inactive)
GI50 (K562): 53 µM (inactive)
GI50 (PC-3): > 100 µM (inactive)
GI50 (A498): > 100 µM (inactive)
GI50 (UACC-62): 62.1 µM (inactive)
GI50 (SF-268): > 100 µM (inactive)
GI50 (MOLT-4): 21.4 µM (inactive)
GI50 (HOP-92): 50.8 µM (inactive)
GI50 (SK-MEL-2): 25.4 µM (inactive)
GI50 (SR): 23.2 µM (inactive)
GI50 (786-0): > 100 µM (inactive)
GI50 (IGROV-1): 40.6 µM (inactive)
GI50 (HL-60): 30.9 µM (inactive)
GI50 (HCT-116): > 100 µM (inactive)
GI50 (SW-620): 54.2 µM (inactive)
GI50 (OVCAR-8): > 100 µM (inactive)
GI50 (HOP-62): > 100 µM (inactive)
GI50 (MDA-MB-435): 29.9 µM (inactive)
GI50 (MDA-MB-231): 14.8 µM (inactive)
GI50 (Hs-578T): 40.8 µM (inactive)
GI50 (SNB-75): > 100 µM (inactive)
GI50 (COLO 205): 72.3 µM (inactive)
GI50 (SN12C): > 100 µM (inactive)
GI50 (OVCAR-4): > 100 µM (inactive)
GI50 (HT-29): > 100 µM (inactive)
GI50 (M14): 38.5 µM (inactive)
GI50 (Malme-3M): 20 µM (inactive)
GI50 (U-251): 25.8 µM (inactive)
GI50 (DU-145): > 100 µM (inactive)
GI50 (SK-OV-3): > 100 µM (inactive)
